Measured values from patent publication USRE40912E1, “Process for isolation, purification, and recrystallization of lutein from saponified marigold oleoresin and uses thereof” (The Catholic University of America, priority 1994, dated 2009).

Assays:
[1] = stability of lutein suspension in olive oil by spectrophotometric and HPLC analysis; assay type: physicochemical; details: suspension in olive oil with α-tocopherol and polysorbate 80, stored under nitrogen in a refrigerator
Protocol: (§1) Purified lutein from marigold flowers extract (1 g) was added to absolute alcohol (75 mL). To this solution α-tocopherol (50 mg) and food grade polysorbate 80 (an emulsifier, 4 g) was added and the mixture was sonicated for 10 minutes. The addition of α-tocopherol (0.01% by weight) was to stabilize lutein and prevent this compound from possible oxidation during long term storage. The above suspension was then mixed with 350 g of light and mild olive oil (saturated fat/polyunsaturated fat=2/1) and the mixture was sonicated for 5 minutes. […] 7 mL aliquots of this suspension was shown by spectrophotometric analysis to contain 10 mg of lutein. At various intervals, the stability and the purity of lutein suspension in the olive oil was determined by spectrophotometric and HPLC analysis. […] In one study each 7 mL aliquot of the olive oil (containing 10 mg lutein) was spread on a bagel prior to ingestion. Alternatively, this small volume of oil can be readily taken with other foods. Although this preparation of lutein dose is appropriate for conducting human studies with a limited number of subjects, other preparations of this compound into tablets or capsules can be accomplished. The formulation of β-carotene into tablets and capsules which has been developed by Hoffmann-La Roche Inc. (Nutley, N.J.), may also be found suitable for lutein with some minor modifications.

[2] = human study of oral lutein dose, plasma carotenoid profile; assay type: in vivo; details: oral 10 mg lutein dose as suspension in olive oil (ethanol, α-tocopherol, polysorbate 80), spread on a bagel
Protocol: Carotenoids are considered among the fat soluble nutrients and are usually associated with the lipoprotein fractions of human blood. […] In the following, the procedure employed for the preparation of a small batch (100 dose, each 10 mg) of purified lutein is described.
as §1, with “Although this preparation of lutein dose is appropriate for conducting human studies with a limited number of subjects, other preparations of this compound into tablets or capsules can be accomplished. The formulation of β-carotene into tablets and capsules which has been developed by Hoffmann-La Roche Inc. (Nutley, N.J.), may also be found suitable for lutein with some minor modifications.” left out

stability of lutein suspension in olive oil [1]: stable for up to one month
absorption of lutein by the subjects as determined from analysis of their plasma carotenoid profile [2]: excellent absorption
SMILES: CC1=C[C@H](O)CC(C)(C)[C@H]1/C=C/C(C)=C/C=C/C(C)=C/C=C/C=C(C)/C=C/C=C(C)/C=C/C1=C(C)C[C@@H](O)CC1(C)C [lutein, (3R,3′R,6′R)-β,ε-Carotene-3,3′-diol]
